{
  "source": "paper PMC4207543",
  "about": "(Journal of Medicinal Chemistry, 2014)",
  "key": {"[1]": {"target": "S. aureus topoisomerase IV (Staphylococcus aureus, UniProt P0C1S7+P0C1U9)", "sequence (P0C1U9 whole entry)": "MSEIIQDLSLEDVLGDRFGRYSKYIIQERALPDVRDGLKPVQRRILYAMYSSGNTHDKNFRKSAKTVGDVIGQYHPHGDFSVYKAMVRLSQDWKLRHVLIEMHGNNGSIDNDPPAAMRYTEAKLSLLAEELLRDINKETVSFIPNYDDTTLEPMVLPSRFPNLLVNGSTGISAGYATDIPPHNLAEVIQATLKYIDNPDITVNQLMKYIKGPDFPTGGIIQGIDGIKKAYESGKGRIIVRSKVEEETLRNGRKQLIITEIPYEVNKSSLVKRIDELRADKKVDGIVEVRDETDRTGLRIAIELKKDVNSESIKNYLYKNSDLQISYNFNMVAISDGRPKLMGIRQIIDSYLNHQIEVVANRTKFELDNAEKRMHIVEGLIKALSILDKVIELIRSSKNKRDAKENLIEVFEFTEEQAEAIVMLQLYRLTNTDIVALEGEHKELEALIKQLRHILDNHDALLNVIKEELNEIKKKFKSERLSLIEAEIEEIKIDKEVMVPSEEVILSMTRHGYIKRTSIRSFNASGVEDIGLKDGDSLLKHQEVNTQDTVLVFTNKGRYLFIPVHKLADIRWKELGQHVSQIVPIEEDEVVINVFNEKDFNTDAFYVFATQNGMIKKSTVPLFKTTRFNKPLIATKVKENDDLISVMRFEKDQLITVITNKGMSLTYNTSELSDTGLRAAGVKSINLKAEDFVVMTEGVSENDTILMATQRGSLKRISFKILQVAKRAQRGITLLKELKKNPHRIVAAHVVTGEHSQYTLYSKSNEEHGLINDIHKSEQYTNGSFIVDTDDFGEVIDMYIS", "sequence (P0C1S7 whole entry)": "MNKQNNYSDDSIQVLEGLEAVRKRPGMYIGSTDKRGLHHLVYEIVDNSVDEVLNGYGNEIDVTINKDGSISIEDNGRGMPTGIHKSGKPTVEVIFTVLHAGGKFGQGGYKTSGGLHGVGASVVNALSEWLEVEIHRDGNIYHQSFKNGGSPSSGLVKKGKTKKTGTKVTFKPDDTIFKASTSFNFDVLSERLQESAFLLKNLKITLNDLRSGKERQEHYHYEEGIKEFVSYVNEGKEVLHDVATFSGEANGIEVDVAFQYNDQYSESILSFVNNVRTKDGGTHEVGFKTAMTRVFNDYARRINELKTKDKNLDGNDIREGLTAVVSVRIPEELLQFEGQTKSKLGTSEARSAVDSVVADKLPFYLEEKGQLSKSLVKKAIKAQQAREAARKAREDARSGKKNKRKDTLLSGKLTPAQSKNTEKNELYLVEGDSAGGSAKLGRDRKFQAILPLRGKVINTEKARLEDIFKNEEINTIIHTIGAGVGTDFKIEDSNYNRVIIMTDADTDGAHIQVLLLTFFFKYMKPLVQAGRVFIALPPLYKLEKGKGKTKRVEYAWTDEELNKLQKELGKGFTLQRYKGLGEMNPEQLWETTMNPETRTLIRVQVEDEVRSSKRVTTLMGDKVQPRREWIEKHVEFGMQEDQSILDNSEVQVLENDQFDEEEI", "assay": "S. aureus topoisomerase IV decatenation assay", "assay_type": "biochemical"}, "[2]": {"tested_on": "S. aureus RNase J2", "assay": "S. aureus RNase J2 activity", "assay_type": "biochemical", "details": "data not shown"}, "[3]": {"target": "T1, S. aureus RnpA (Staphylococcus aureus, UniProt P0A0H5)", "T1 sequence (P0A0H5 1-117)": "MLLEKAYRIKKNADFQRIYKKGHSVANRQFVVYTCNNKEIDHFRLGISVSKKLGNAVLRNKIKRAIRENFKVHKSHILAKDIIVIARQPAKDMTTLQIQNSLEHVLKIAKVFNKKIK", "assay": "S. aureus RnpA activity", "assay_type": "biochemical", "details": "data not shown"}, "[4]": {"tested_on": "S. aureus strain UAMS-1", "assay": "microbe, parasite or virus in culture", "assay_type": "cell-based, Staphylococcus aureus", "details": "for MIC: Staphylococcus aureus, UAMS1, 16 h, read-out: S. aureus MIC, strain UAMS-1, planktonic cells, MHB, 37 °C, 16 h; for fold reduction in activity compared to 4g: S. aureus MIC"}, "[5]": {"target": "S. aureus DNA gyrase (Staphylococcus aureus, UniProt P0A0K8+P20831)", "sequence (P20831 whole entry)": "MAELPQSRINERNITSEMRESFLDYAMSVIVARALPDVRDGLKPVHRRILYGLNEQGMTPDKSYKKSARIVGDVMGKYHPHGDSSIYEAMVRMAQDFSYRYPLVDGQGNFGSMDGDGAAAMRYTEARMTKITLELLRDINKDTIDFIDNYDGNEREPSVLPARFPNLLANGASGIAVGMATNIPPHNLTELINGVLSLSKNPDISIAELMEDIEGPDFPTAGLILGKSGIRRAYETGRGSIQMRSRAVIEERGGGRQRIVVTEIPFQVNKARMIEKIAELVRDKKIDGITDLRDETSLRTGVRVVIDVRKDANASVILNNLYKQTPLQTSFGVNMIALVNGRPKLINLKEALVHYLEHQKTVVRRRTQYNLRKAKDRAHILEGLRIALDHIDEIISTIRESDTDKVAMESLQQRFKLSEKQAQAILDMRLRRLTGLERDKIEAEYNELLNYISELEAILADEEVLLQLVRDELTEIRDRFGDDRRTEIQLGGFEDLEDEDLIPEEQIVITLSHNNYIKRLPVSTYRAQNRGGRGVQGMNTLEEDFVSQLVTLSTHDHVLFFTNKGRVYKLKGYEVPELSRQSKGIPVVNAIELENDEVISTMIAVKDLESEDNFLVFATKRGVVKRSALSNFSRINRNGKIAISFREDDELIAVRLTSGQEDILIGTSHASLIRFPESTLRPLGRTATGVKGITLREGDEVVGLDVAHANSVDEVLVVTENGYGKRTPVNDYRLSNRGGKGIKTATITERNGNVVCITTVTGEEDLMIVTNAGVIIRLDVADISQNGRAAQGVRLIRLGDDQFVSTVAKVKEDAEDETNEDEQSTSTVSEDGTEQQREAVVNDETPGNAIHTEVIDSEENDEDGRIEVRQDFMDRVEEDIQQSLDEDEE", "sequence (P0A0K8 whole entry)": "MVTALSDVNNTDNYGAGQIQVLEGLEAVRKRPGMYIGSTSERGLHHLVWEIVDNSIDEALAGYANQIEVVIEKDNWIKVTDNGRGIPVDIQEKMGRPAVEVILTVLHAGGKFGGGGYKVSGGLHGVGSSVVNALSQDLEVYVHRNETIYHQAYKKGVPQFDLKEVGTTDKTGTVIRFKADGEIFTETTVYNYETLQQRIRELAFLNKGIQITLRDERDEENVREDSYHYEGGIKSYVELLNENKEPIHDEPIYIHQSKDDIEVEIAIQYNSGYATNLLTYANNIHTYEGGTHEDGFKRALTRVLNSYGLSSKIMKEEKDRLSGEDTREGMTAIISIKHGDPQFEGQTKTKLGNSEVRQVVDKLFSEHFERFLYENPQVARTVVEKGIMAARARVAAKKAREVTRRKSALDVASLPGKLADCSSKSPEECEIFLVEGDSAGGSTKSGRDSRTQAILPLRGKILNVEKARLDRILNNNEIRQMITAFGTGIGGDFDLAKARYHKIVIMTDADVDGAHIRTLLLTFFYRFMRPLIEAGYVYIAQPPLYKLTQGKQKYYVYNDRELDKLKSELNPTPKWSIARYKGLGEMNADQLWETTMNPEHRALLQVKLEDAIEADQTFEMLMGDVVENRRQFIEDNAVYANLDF", "assay": "S. aureus DNA gyrase supercoiling assay", "assay_type": "biochemical", "details": "tested at 100 μM, gel (Figure 4B)"}, "[6]": {"tested_on": "methicillin-resistant (MRSA), vancomycin-intermediate (VISA), vancomycin-resistant (VRSA) S. aureus, fluoroquinolone resistant strains", "assay_type": "cell-based, Staphylococcus aureus", "details": "toward MRSA, VRSA S. aureus and fluoroquinolone resistant strains"}, "[7]": {"details": "strain UAMS-1, compared to the hit 1a"}},
  "note": "Read-outs that look alike come from different tables or passages of the source.",
  "data": [
    {"compound": "CC(C)(C)c1ccc(C(O)CCCN2CCC(C(O)(c3ccccc3)c3ccccc3)CC2)cc1", "note": "(stereo not drawn) [1a, 1-(4-(tert-Butyl)phenyl)-4-(4-(hydroxydiphenylmethyl)piperidin-1-yl)butan-1-ol]", "values": [
      {"measurement": "topoisomerase IV inhibitory activity (in words)", "setting": "[1]; dose–response gel (Figure 5A)", "value": "moderate"},
      {"measurement": "effect on activity of S. aureus RNase J2", "setting": "[2]", "value": "did not appear to affect the activity"},
      {"measurement": "effect on activity of S. aureus RnpA", "setting": "[3]", "value": "did not appear to affect the activity"}
    ]},
    {"compound": "COc1ccc(C(O)CCCN2CCC(C(O)(c3ccccc3)c3ccccc3)CC2)cc1", "note": "(stereo not drawn) [1h, 1-(4-Methoxyphenyl)-4-(4-(hydroxydiphenylmethyl)piperidin-1-yl)butan-1-ol]", "values": [
      {"measurement": "S. aureus antimicrobial activity (in words)", "setting": "[4]; [7]", "value": "loss of antimicrobial activity"}
    ]},
    {"compound": "COC(=O)c1ccc(C(O)CCCN2CCC(C(O)(c3ccccc3)c3ccccc3)CC2)cc1", "note": "(stereo not drawn) [1i, Methyl 4-(1-Hydroxy-4-(4-(hydroxydiphenylmethyl)piperidin-1-yl)butyl)benzoate]", "values": [
      {"measurement": "MIC", "setting": "[4]", "value": "> 256", "unit": "µg/mL"},
      {"measurement": "S. aureus antimicrobial activity (in words)", "setting": "[4]; [7]", "value": "loss of antimicrobial activity"},
      {"measurement": "IC50", "setting": "[1]", "value": "> 333", "unit": "µM"}
    ]},
    {"compound": "O=C(O)c1ccc(C(O)CCCN2CCC(C(O)(c3ccccc3)c3ccccc3)CC2)cc1", "note": "(stereo not drawn) [1m, 4-(1-Hydroxy-4-(4-(hydroxydiphenylmethyl)piperidin-1-yl)butyl)benzoic Acid]", "values": [
      {"measurement": "S. aureus antimicrobial activity (in words)", "setting": "[4]; [7]", "value": "loss of antimicrobial activity"}
    ]},
    {"compound": "COC(=O)C(C)(C)c1ccc(C(O)CCCN2CCC(C(O)(c3ccccc3)c3ccccc3)CC2)cc1", "note": "(stereo not drawn) [1o, Methyl 2-(4-(1-Hydroxy-4-(4-(hydroxydiphenylmethyl)piperidin-1-yl)butyl)phenyl)-2-methylpropanoate]", "values": [
      {"measurement": "S. aureus antimicrobial activity (in words)", "setting": "[4]; [7]", "value": "loss of antimicrobial activity"}
    ]},
    {"compound": "CC(C)(C(=O)O)c1ccc(C(O)CCCN2CCC(C(O)(c3ccccc3)c3ccccc3)CC2)cc1", "note": "(stereo not drawn) [1p, 2-(4-(1-Hydroxy-4-(4-(hydroxydiphenylmethyl)piperidin-1-yl)butyl)phenyl)-2-methyl propanoic Acid, reference compound]", "values": [
      {"measurement": "S. aureus antimicrobial activity (in words)", "setting": "[4]", "value": "loss of antimicrobial activity"}
    ]},
    {"compound": "CC(C)(C)c1ccc(C(N)CCCN2CCC(C(O)(c3ccccc3)c3ccccc3)CC2)cc1", "note": "(stereo not drawn) [2g, (1-(4-Amino-4-(4-(tert-butyl)phenyl)butyl)piperidin-4-yl)diphenylmethanol]", "values": [
      {"measurement": "MIC", "setting": "[4]", "value": "16 to 32", "unit": "µg/mL"},
      {"measurement": "S. aureus antimicrobial activity (in words)", "setting": "[4]; [7]", "value": "no change in activity"}
    ]},
    {"compound": "CC(C)(C)c1ccc([C@@H](O)CCCN2CCC(C(O)(c3ccccc3)c3ccccc3)CC2)cc1", "note": "[2h, (S)-1-(4-(tert-Butyl)phenyl)-4-(4-(hydroxydiphenylmethyl)piperidin-1-yl)butan-1-ol]", "values": [
      {"measurement": "S. aureus antimicrobial activity (in words)", "setting": "[4]; [7]", "value": "no change in activity"}
    ]},
    {"compound": "CC(C)(C)c1ccc([C@H](O)CCCN2CCC(C(O)(c3ccccc3)c3ccccc3)CC2)cc1", "note": "[2i, (R)-1-(4-(tert-Butyl)phenyl)-4-(4-(hydroxydiphenylmethyl)piperidin-1-yl)butan-1-ol]", "values": [
      {"measurement": "S. aureus antimicrobial activity (in words)", "setting": "[4]; [7]", "value": "no change in activity"}
    ]},
    {"compound": "OC(c1ccccc1)(c1ccccc1)C1CCN(CCc2ccc(F)cc2)CC1", "note": "[3c, (1-(4-Fluorophenethyl)piperidin-4-yl)diphenylmethanol]", "values": [
      {"measurement": "IC50", "setting": "[1]", "value": "> 333", "unit": "µM"}
    ]},
    {"compound": "OC(c1ccccc1)(c1ccccc1)C1CCN(CCc2ccc(Cl)cc2)CC1", "note": "[3d, (1-(4-Chlorophenethyl)piperidin-4-yl)diphenylmethanol]", "values": [
      {"measurement": "MIC", "setting": "[4]", "value": "16 to 32", "unit": "µg/mL"}
    ]},
    {"compound": "OC(c1ccccc1)(c1ccccc1)C1CCN(CCc2ccc(Br)cc2)CC1", "note": "[3e, (1-(4-Bromophenethyl)piperidin-4-yl)diphenylmethanol]", "values": [
      {"measurement": "MIC", "setting": "[4]", "value": "16 to 32", "unit": "µg/mL"}
    ]},
    {"compound": "COc1ccc(CCN2CCC(C(O)(c3ccccc3)c3ccccc3)CC2)cc1", "note": "[3g, (1-(4-Methoxyphenethyl)piperidin-4-yl)diphenylmethanol]", "values": [
      {"measurement": "IC50", "setting": "[1]", "value": "> 333", "unit": "µM"}
    ]},
    {"compound": "CC(C)(C)c1ccc(CCN2CCC(C(O)(c3ccccc3)c3ccccc3)CC2)cn1", "note": "[3h, (1-(2-(6-(tert-Butyl)pyridin-3-yl)ethyl)piperidin-4-yl)diphenylmethanol]", "values": [
      {"measurement": "IC50", "setting": "[1]", "value": "> 333", "unit": "µM"}
    ]},
    {"compound": "CN(C)c1ccc(CCN2CCC(C(O)(c3ccccc3)c3ccccc3)CC2)cc1", "note": "[3k, (1-(4-(Dimethylamino)phenethyl)piperidin-4-yl)diphenylmethanol]", "values": [
      {"measurement": "IC50", "setting": "[1]", "value": "> 333", "unit": "µM"}
    ]},
    {"compound": "OC(c1ccccc1)(c1ccccc1)C1CCN(CCc2ccc(-c3cccnc3)cc2)CC1", "note": "[3n, (1-(4-(Pyridin-3-yl)phenethyl)piperidin-4-yl)diphenylmethanol]", "values": [
      {"measurement": "MIC", "setting": "[4]", "value": "16 to 32", "unit": "µg/mL"}
    ]},
    {"compound": "CC1(c2ccc(CCN3CCC(C(O)(c4ccccc4)c4ccccc4)CC3)cc2)COC1", "note": "[3o, (1-(4-(3-Methyloxetan-3-yl)phenethyl)piperidin-4-yl)diphenylmethanol]", "values": [
      {"measurement": "IC50", "setting": "[1]", "value": "> 333", "unit": "µM"}
    ]},
    {"compound": "OC(c1ccccc1)(c1ccccc1)C1CCN(Cc2ccc(-c3ccsc3)cc2)CC1", "note": "[4ff]", "values": [
      {"measurement": "fold reduction in activity compared to 4g", "setting": "[4]", "value": "4– 8 fold"}
    ]},
    {"compound": "OC(c1ccccc1)(c1ccccc1)C1CCN(Cc2ccc(-c3ccccc3)cc2)CC1", "note": "[4g, (1-([1,1′-Biphenyl]-4-ylmethyl)piperidin-4-yl)diphenylmethanol]", "values": [
      {"measurement": "inhibition of S. aureus DNA gyrase supercoiling activity in comparison to terfenadine", "setting": "[5]", "value": "improved inhibition"}
    ]},
    {"compound": "OC(c1ccccc1)(c1ccccc1)C1CCN(Cc2ccc(-c3cccs3)cc2)CC1", "note": "[4gg, (1-(4-(Thiophen-2-yl)benzyl)piperidin-4-yl)diphenylmethanol]", "values": [
      {"measurement": "fold reduction in activity compared to 4g", "setting": "[4]", "value": "4– 8 fold"}
    ]},
    {"compound": "OC(c1ccccc1)(c1ccccc1)C1CCN(Cc2ccc(-c3ccoc3)cc2)CC1", "note": "[4hh, (1-(4-(Furan-3-yl)benzyl)piperidin-4-yl)diphenylmethanol]", "values": [
      {"measurement": "fold reduction in activity compared to 4g", "setting": "[4]", "value": "4– 8 fold"}
    ]},
    {"compound": "OC(c1ccccc1)(c1ccccc1)C1CCN(Cc2ccc(-c3ccco3)cc2)CC1", "note": "[4ii, (1-(4-(Furan-2-yl)benzyl)piperidin-4-yl)diphenylmethanol]", "values": [
      {"measurement": "fold reduction in activity compared to 4g", "setting": "[4]", "value": "4– 8 fold"}
    ]},
    {"compound": "CC(C)(C)c1ccc(C(O)CCCN2CCC(C(O)c3ccccc3)CC2)cc1", "note": "(stereo not drawn) [5a, 1-(4-(tert-Butyl)phenyl)-4-(4-(hydroxy(phenyl)methyl)piperidin-1-yl)butan-1-ol]", "values": [
      {"measurement": "IC50", "setting": "[1]", "value": "> 333", "unit": "µM"}
    ]},
    {"compound": "CC(C)(C)c1ccc(C(O)CCCN2CCC(Cc3ccccc3)CC2)cc1", "note": "(stereo not drawn) [5b, 4-(4-Benzylpiperidin-1-yl)-1-(4-(tert-butyl)phenyl)butan-1-ol]", "values": [
      {"measurement": "IC50", "setting": "[1]", "value": "> 333", "unit": "µM"}
    ]},
    {"compound": "CC(C)(C)c1ccc(C(O)CCCN2CCC(C(c3ccccc3)c3ccccc3)CC2)cc1", "note": "(stereo not drawn) [5e, 4-(4-Benzhydrylpiperidin-1-yl)-1-(4-(tert-butyl)phenyl)butan-1-ol]", "values": [
      {"measurement": "S. aureus antimicrobial activity (in words)", "setting": "[4]; [7]", "value": "tolerated"}
    ]},
    {"compound": "O=C(O)c1cn(C2CC2)c2cc(N3CCNCC3)c(F)cc2c1=O", "note": "[ciprofloxacin, reference compound]", "values": [
      {"measurement": "inhibition of S. aureus DNA gyrase supercoiling activity in comparison to terfenadine", "setting": "[5]", "value": "improved inhibition"}
    ]},
    {"compound": "OC(c1ccccc1)(c1ccccc1)C1CCN(CCCOc2ccc(-c3ccccc3)cc2)CC1", "note": "[compound 6, (1-(3-([1,1′-Biphenyl]-4-yloxy)propyl)piperidin-4-yl)diphenylmethanol]", "values": [
      {"measurement": "inhibition of S. aureus DNA gyrase supercoiling activity in comparison to terfenadine", "setting": "[5]", "value": "improved inhibition"},
      {"measurement": "MIC", "setting": "[6]", "value": "approximately 2 μg/mL"}
    ]}
  ]
}
